# Test results as given in patent US8835466B2, “Synthesis and uses of pyroglutamic acid derivatives” (Prodimed, S.A., priority 2006, dated 2014).
# System: KLN 205 cells (lung cell carcinoma)
# Experiment: Effect of 9d in combination with Cisplatin on tumour growth, KLN 205 (Example 11)
# Assay type: in vivo, DBA/2 mice
# Details: for Tumour surface, overall values (Mean) / Tumour surface, overall values (Median) / Tumour volume, overall values (Mean) / Tumour volume, overall values (Median): Cisplatin 65 μg i.p. days 3, 6, 10, 13, 17, 20
# Method: This was carried out by measuring two perpendicular diameters (d1/d2) with a calliper. These measures were used to obtain both tumour surface and volume: […] Results were expressed as single values and/or as the mean±SD or median from each experimental group. This assay was made in order to check the effect on in vivo tumour growth in mice challenged with KLN 205 cells. Their effect was compared with the combination of Cisplatin plus 9d and/or placebo. KLN 205 is a lung cell carcinoma originated in DBA/2 mouse strain, and therefore syngeneic in mice with DBA/2 genetic background (Kaneko T and […]. Growth characteristics and drug responses of a murine lung carcinoma in vitro and in vivo. Cancer Res. 38: 2084-2090; 1978). KLN 205 cells (CLS, Eppelheim, Germany) were maintained in vitro by serial passages every 3-4 days. […] Louis, Mo., USA) by seeding 5×10^6 cells onto 75 cm^2 culture flasks. Subcultures were carried out by collecting detached cells after treatment with trypsin-EDTA (Sigma, St. Louis, Mo., USA). Tumour cells, collected from 48 hour cultures, were used as source of KLN 205 cells for the studies described below. […] Tumours were established by subcutaneous inoculation in the right hind flank. Mice (DBA/2) were inoculated with 0.2 mL containing 2×10^5 viable KLN 205 cells. The day of subcutaneous inoculation will be considered Day 0 of the test. A case-control study was performed with treated and control mice in order to determine whether differences between placebo, 9d, Cisplatin or 9d+Cisplatin were present. […] The t-test was chosen for being one of the better known parametrical tests.
# [1] = day 0 after tumour inoculation, 9d 250 ng
# [2] = day 10 after tumour inoculation, 9d 250 ng
# [3] = day 13 after tumour inoculation, 9d 250 ng
# [4] = day 17 after tumour inoculation, 9d 250 ng
# [5] = day 20 after tumour inoculation, 9d 250 ng
# [6] = day 24 after tumour inoculation, 9d 250 ng
# [7] = day 27 after tumour inoculation, 9d 250 ng
# [8] = day 31 after tumour inoculation, 9d 250 ng
# [9] = day 34 after tumour inoculation, 9d 250 ng
# [10] = day 38 after tumour inoculation, 9d 250 ng
structure (smiles),measurement,setting,value
"N.N.[Cl][Pt][Cl] [Cisplatin, reference compound]","Inhibition of the in vivo growth of KLN 205 cell, in words","9d 250 ng, Cisplatin 65 μg i.p.",inhibit the in vivo growth
same,"Tumour surface, overall values (Mean)",[1],0 mm^2
same,"Tumour surface, overall values (Median)",[1],0 mm^2
same,"Tumour volume, overall values (Mean)",[1],0 mm^3
same,"Tumour volume, overall values (Median)",[1],0 mm^3
same,"Tumour surface, overall values (Mean)",[2],4.07 mm^2
same,"Tumour surface, overall values (Median)",[2],4 mm^2
same,"Tumour volume, overall values (Mean)",[2],5.1 mm^3
same,"Tumour volume, overall values (Median)",[2],4 mm^3
same,"Tumour surface, overall values (Mean)",[3],14.87 mm^2
same,"Tumour surface, overall values (Median)",[3],16 mm^2
same,"Tumour volume, overall values (Mean)",[3],31.77 mm^3
same,"Tumour volume, overall values (Median)",[3],32 mm^3
same,"Tumour surface, overall values (Mean)",[4],23.93 mm^2
same,"Tumour surface, overall values (Median)",[4],20 mm^2
same,"Tumour volume, overall values (Mean)",[4],59.1 mm^3
same,"Tumour volume, overall values (Median)",[4],40 mm^3
same,"Tumour surface, overall values (Mean)",[5],39.07 mm^2
same,"Tumour surface, overall values (Median)",[5],36 mm^2
same,"Tumour volume, overall values (Mean)",[5],119.07 mm^3
same,"Tumour volume, overall values (Median)",[5],108 mm^3
same,"Tumour surface, overall values (Mean)",[6],72.2 mm^2
same,"Tumour surface, overall values (Median)",[6],72 mm^2
same,"Tumour volume, overall values (Mean)",[6],285.43 mm^3
same,"Tumour volume, overall values (Median)",[6],288 mm^3
same,"Tumour surface, overall values (Mean)",[7],97.07 mm^2
same,"Tumour surface, overall values (Median)",[7],99 mm^2
same,"Tumour volume, overall values (Mean)",[7],445.8 mm^3
same,"Tumour volume, overall values (Median)",[7],445.5 mm^3
same,"Tumour surface, overall values (Mean)",[8],124.67 mm^2
same,"Tumour surface, overall values (Median)",[8],120 mm^2
same,"Tumour volume, overall values (Mean)",[8],637.07 mm^3
same,"Tumour volume, overall values (Median)",[8],600 mm^3
same,"Tumour surface, overall values (Mean)",[9],147.93 mm^2
same,"Tumour surface, overall values (Median)",[9],150 mm^2
same,"Tumour volume, overall values (Mean)",[9],809.03 mm^3
same,"Tumour volume, overall values (Median)",[9],800 mm^3
same,"Tumour surface, overall values (Mean)",[10],185.33 mm^2
same,"Tumour surface, overall values (Median)",[10],198 mm^2
same,"Tumour volume, overall values (Mean)",[10],1129.9 mm^3
same,"Tumour volume, overall values (Median)",[10],1089 mm^3
same,"Differences in KLN 205 tumour growth rate vs. placebo, statistical significance p (t-test)","either in surface or volume, all days scored after day 20th",< 0.05
